Results taken from patent publication US20030215888A1, “Androgen receptor overexpressing skeletal myoblasts” (Pfizer Inc., priority 2002, published 2003).

Legend:
[1] = tested on: C2hAR57 cells; experiment: [3H]-thymidine uptake assay, C2hAR57 cells; assay type: cell-based, mouse; settings: for effect on [3H]-thymidine uptake: 48 hours exposure
Description: After 48 hours exposure to the test agents, medium containing 0.1 μCi [^3H]-thymidine (82 Ci/mmol, Amersham, Buckinghamshire, UK) per well was added and incubation was continued for two additional hours at 37° C. The assay was terminated by aspirating the culture medium and washing with ice-cold phosphate buffered saline followed by 5% trichloroacetic acid. The cells where then lysed by applying 0.3 N NaOH (75 μl per well) followed by 0.3 N HCl (75 μl per well) to neutralize the NaOH. The radioactivity in 50-μl aliquots was determined by liquid scintillation counting in 96-well plates (Packard Instrument Corporation) using a TopCount™ Scintillation Counter (Packard Instrument Corporation).

[2] = molecular target: T1, androgen receptor (Homo sapiens, UniProt P10275); settings: read-out: IC50 (known affinities for the androgen receptor); printed beside rank order potency on inhibition of [3H]-thymidine uptake; cited from earlier work
T1 sequence (P10275 1-920): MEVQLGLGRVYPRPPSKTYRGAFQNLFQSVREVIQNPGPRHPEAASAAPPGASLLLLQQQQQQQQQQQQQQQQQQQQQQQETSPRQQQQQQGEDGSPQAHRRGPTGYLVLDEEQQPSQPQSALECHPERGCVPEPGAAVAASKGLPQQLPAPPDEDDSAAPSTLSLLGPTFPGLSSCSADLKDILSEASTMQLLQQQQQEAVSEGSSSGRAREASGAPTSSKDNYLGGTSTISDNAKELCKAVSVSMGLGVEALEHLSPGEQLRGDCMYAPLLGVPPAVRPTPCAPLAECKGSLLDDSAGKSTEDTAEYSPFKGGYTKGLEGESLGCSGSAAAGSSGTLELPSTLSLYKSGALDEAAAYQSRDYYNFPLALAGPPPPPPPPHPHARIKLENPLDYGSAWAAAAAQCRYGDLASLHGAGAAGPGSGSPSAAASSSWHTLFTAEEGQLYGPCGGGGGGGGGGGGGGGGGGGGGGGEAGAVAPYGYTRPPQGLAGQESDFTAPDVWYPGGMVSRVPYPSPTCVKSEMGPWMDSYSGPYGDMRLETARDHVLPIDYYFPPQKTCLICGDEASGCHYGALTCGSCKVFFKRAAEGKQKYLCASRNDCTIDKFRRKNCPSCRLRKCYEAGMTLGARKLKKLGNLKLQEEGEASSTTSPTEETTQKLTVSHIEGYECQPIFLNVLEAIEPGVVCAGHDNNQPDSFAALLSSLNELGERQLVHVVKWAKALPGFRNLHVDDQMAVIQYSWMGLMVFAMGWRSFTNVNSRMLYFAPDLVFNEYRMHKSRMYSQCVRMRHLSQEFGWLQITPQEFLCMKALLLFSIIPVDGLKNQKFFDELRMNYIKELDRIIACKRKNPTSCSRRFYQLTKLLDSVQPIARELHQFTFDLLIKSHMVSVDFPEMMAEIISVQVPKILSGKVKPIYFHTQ

| SMILES | effect on [3H]-thymidine uptake [1] | IC50 [2] | reversal of the inhibition of [3H]-thymidine uptake by 0.1 nM DHT ([1]; concomitant addition with 0.1 nM DHT) |
| --- | --- | --- | --- |
| C[C@]12COC(=O)C[C@@H]1CC[C@@H]1[C@@H]2CC[C@@]2(C)[C@H]1CC[C@]2(C)O [oxandrolone] | dose-dependent inhibitory effects | 28.4 nM | – |
| CC(C)(O)C(=O)Nc1ccc([N+](=O)[O-])c(C(F)(F)F)c1 [2-hydroxyflutamide] | – | – | completely reversed |
| C[C@]12CC[C@H]3[C@@H](CCC4=CC(=O)CC[C@@]43C)[C@@H]1CC[C@@H]2O [testosterone] | dose-dependent inhibitory effects | – | – |
| C[C@]12Cc3c[nH]nc3C[C@@H]1CC[C@@H]1[C@@H]2CC[C@@]2(C)[C@H]1CC[C@]2(C)O [stanozolol] | dose-dependent inhibitory effects | – | – |
